# Data from patent publication US20250268903A1, “RXFP1 AGONISTS” (BRISTOL-MYERS SQUIBB COMPANY, priority 2021, published 2025).
# Target: T1, human RXFP1 (Homo sapiens, UniProt Q9HBX9)
# T1 construct: expressed in transfected cells
# T1 sequence (Q9HBX9 1-757): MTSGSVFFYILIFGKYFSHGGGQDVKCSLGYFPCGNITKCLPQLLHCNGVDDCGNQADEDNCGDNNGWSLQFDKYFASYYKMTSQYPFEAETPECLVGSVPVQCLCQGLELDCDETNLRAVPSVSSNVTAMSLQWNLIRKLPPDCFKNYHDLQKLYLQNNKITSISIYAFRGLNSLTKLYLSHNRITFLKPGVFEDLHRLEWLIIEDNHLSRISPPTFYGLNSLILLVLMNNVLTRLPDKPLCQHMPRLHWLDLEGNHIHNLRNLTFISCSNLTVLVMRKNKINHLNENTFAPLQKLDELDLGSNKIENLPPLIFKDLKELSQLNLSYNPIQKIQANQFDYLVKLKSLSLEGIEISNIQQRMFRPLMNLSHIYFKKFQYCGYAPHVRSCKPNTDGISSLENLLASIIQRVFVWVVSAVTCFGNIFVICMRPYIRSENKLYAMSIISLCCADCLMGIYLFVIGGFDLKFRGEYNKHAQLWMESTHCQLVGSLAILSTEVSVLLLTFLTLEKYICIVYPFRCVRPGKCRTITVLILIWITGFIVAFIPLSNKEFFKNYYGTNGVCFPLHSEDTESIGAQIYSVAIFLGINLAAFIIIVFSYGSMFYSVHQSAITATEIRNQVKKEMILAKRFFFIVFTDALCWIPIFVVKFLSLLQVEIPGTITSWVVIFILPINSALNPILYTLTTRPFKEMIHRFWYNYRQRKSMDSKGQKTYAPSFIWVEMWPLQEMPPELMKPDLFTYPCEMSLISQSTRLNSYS
# Experiment: hRXFP1 HEK293 cAMP assay (HTRF)
# Assay type: cell-based
# Conditions: HEK293 cells stably expressing human RXFP1, 30 min at room temperature
# Method in brief: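 hRXFP1-HEK293 stable line; HBSS + Ca/Mg, 20 mM HEPES, 0.05% BSA, 0.5 mM IBMX; cpd 0.010 nM–50 μM, 2% DMSO; 30 min RT; lysis, HTRF cAMP detection; 4-PL fit.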
row,SMILES,EC50 [nM]
1,COc1ccc(/C=C/C(=O)N2CCC(C(F)(F)F)CC2)cc1C(=O)N[C@H]1[C@@H](C(=O)Nc2ccc(F)c(C(F)(F)F)c2)[C@H]2CC[C@@H]1/C2=C\C1CC1 [Example 315],91.2
2,"COc1ccc(/C=C/C(=O)N2CCC(C#N)CC2)cc1C(=O)N[C@H]1[C@@H](C(=O)Nc2ccc(F)c(C(F)(F)F)c2)[C@H]2CC[C@@H]1/C2=C\C1CC1 [Example 316, (1R,2S,3R,4R,7Z)-3-{5-[(1E)-3-(4-cyanopiperidin-1-yl)-3-oxoprop-1-en-1-yl]-2-methoxybenzamido}-7-(cyclopropylmethylidene)-N-[4-fluoro-3-(trifluoromethyl)phenyl]bicyclo[2.2.1] heptane-2-carboxamide]",96.7
3,"COc1ccc(/C=C/C(=O)N2CCC(S(C)(=O)=O)CC2)cc1C(=O)N[C@H]1[C@@H](C(=O)Nc2ccc(F)c(C(F)(F)F)c2)[C@H]2CC[C@@H]1/C2=C\C1CC1 [Example 317, (1R,2S,3R,4R,7Z)-7-(cyclopropyl-methylidene)-N-[4-fluoro-3-(trifluoromethyl)phenyl]-3-{5-[(1E)-3-(4-methanesulfonyl-piperidin-1-yl)-3-oxoprop-1-en-1-yl]-2-methoxybenzamido} bicyclo[2.2.1]heptane-2-carboxamide]",140
4,"CCOC(=O)/C(C)=C/c1ccc(OC)c(C(=O)N[C@H]2[C@@H](C(=O)Nc3ccc(F)c(C(F)(F)F)c3)[C@H]3CC[C@@H]2/C3=C\C(F)(F)F)c1 [Example 318, ethyl (2E)-3-(3-{[(1R,2R,3S,4R,7Z)-3-{[4-fluoro-3-(trifluoromethyl)phenyl]carbamoyl}-7-(2,2,2-trifluoroethylidene)bicyclo[2.2.1]heptan-2-yl]carbamoyl}-4-methoxyphenyl)-2-methylprop-2-enoate]",2230
5,COc1ccc(/C=C(/C)C(=O)N2CCC(O)CC2)cc1C(=O)N[C@H]1[C@@H](C(=O)Nc2ccc(F)c(C(F)(F)F)c2)[C@H]2CC[C@@H]1/C2=C\C(F)(F)F [Example 319],1120
6,COc1ccc(CCC(=O)N2CCC(O)CC2)cc1C(=O)N[C@H]1[C@@H](C(=O)Nc2ccc(F)c(C(F)(F)F)c2)[C@H]2CC[C@@H]1/C2=C\C(F)(F)F [Example 320],81.2
7,COc1ccc(C2CC(C(=O)N3CCC(O)CC3)C2)cc1C(=O)N[C@H]1[C@@H](C(=O)Nc2ccc(F)c(C(F)(F)F)c2)[C@H]2CC[C@@H]1/C2=C\C1CC1 (stereo partly shown) [Example 327],26.1
8,"COC(=O)C1CC(c2ccc(OC)c(C(=O)N[C@H]3[C@@H](C(=O)Nc4ccc(F)c(C(F)(F)F)c4)[C@H]4CC[C@@H]3/C4=C\C(F)(F)F)c2)C1 (stereo partly drawn) [Example 329, methyl 3-(3-{[(1R,2R,3S,4R,7Z)-3-{[4-fluoro-3-(trifluoromethyl)phenyl]carbamoyl}-7-(2,2,2-trifluoroethylidene)bicyclo[2.2.1]heptan-2-yl]carbamoyl}-4-methoxyphenyl) cyclobutane-1-carboxylate]",210
9,"COc1ccc(C2CC(CO)C2)cc1C(=O)N[C@H]1[C@@H](C(=O)Nc2ccc(F)c(C(F)(F)F)c2)[C@H]2CC[C@@H]1/C2=C\C1CC1 (stereo partly drawn) [Example 330, (1R,2S,3R,4R,7Z)-7-(cyclopropylmethylidene)-N-[4-fluoro-3-(trifluoromethyl)phenyl]-3-{5-[3-(hydroxymethyl)cyclobutyl]-2-methoxybenzamido} bicyclo[2.2.1]heptane-2-carboxamide]",79
10,"COC(=O)C1CC(c2ccc(OC)c(C(=O)N[C@H]3[C@@H](C(=O)Nc4ccc(F)c(C(F)(F)F)c4)[C@H]4CC[C@@H]3/C4=C\C(F)(F)F)c2)C1 (stereo partly drawn) [Example 331, methyl 3-(3-{(1R.2R,3S,4R,7Z)-3-{[4-fluoro-3-(trifluoromethyl)phenyl]carbamoyl}-7-(2,2,2-trifluoroethylidene)bicyclo[2.2.1]heptan-2-yl]carbamoyl}-4-methoxyphenyl) cyclobutane-1-carboxylate]",551
11,"COc1ccc(C2CC(CO)C2)cc1C(=O)N[C@H]1[C@@H](C(=O)Nc2ccc(F)c(C(F)(F)F)c2)[C@H]2CC[C@@H]1/C2=C\C1CC1 (stereo partly drawn) [Example 333, (1R,2S,3R,4R,7Z)-7-(cyclopropyl-methylidene)-N-[4-fluoro-3-(trifluoromethyl)phenyl]-3-[5-[3-(hydroxymethyl)cyclobutyl]-2-methoxybenzamido} bicyclo[2.2.1]heptane-2-carboxamide]",62.3
12,"COc1ccc(C23CCC2CC(CO)C3)cc1C(=O)N[C@H]1[C@@H](C(=O)Nc2ccc(F)c(C(F)(F)F)c2)[C@H]2CC[C@@H]1/C2=C\C1CC1 (stereo partly drawn) [Example 353, (1R,2S,3R,4R,7Z)-7-(cyclopropyl-methylidene)-N-[4-fluoro-3-(trifluoromethyl)phenyl]-3-{5-[3-(hydroxymethyl)bicyclo[3.2.0]heptan-1-yl]-2-methoxybenzamido} bicyclo[2.2.1]heptane-2-carboxamide]",181
13,COc1ccc(C2CCCC(NCC(=O)O)C2)cc1C(=O)N[C@@H]1C2CCC(/C2=C/C(F)(F)F)[C@@H]1C(=O)Nc1ccc(F)c(C(F)(F)F)c1 (stereo partly shown) [Example 354],4990
14,"COc1ccc(C2CCCC(N3CC(F)(F)C3)C2)cc1C(=O)N[C@H]1[C@@H](C(=O)Nc2ccc(F)c(C(F)(F)F)c2)[C@H]2CC[C@@H]1/C2=C\C(F)(F)F (stereo partly drawn) [Example 355, (1R,2S,3R,4R,7Z)-3-[5-13-(3,3-difluoroazetidin-1-yl)cyclohexyl]-2-methoxybenzamido 3-N-[4-fluoro-3-(trifluoromethyl)phenyl]-7-(2,2,2-trifluoroethylidene) bicyclo[2.2.1] heptane-2-carboxamide]",4960
15,COC(=O)[C@@H]1CCN(C(=O)Cc2ccc(OC)c(C(=O)NC3C(C(=O)Nc4ccc(F)c(C(F)(F)F)c4)[C@H]4CC[C@@H]3/C4=C\C3CC3)c2)C1 (stereo partly shown) [Example 356],4020

# The next lines start with the values.
row,EC50 [nM],SMILES
1,1290,"COc1ccc(CC(=O)N2CCC(C)(O)C2)cc1C(=O)NC1C(C(=O)Nc2ccc(F)c(C(F)(F)F)c2)[C@H]2CC[C@@H]1/C2=C\C1CC1 (stereo partly drawn) [Example 357, (1R,4R,7Z)-7-(cyclopropyl-methylidene)-N-[4-fluoro-3-(trifluoromethyl)phenyl]-3-{5-[2-(3-hydroxy-3-methylpyrrolidin-1-yl)-2-oxoethyl]-2-methoxybenzamido} bicyclo[2.2.1]heptane-2-carboxamide]"
2,1500,COc1ccc(C(F)(F)F)cc1C(=O)N[C@@H]1C2CCC(C2=C(C)C)[C@@H]1C(=O)Nc1ccc(F)c(C(F)(F)F)c1 (stereo partly shown) [Example 359]
3,2000,"COc1ccc(C)cc1C(=O)N[C@@H]1C2CCC(C2=C(C)C)[C@@H]1C(=O)Nc1ccc(F)c(C(F)(F)F)c1 (stereo partly drawn) [Example 360, (2S,3R)-N-[4-fluoro-3-(trifluoromethyl)phenyl]-3-(2-methoxy-5-methylbenzamido)-7-(propan-2-ylidene)bicyclo[2.2.1] heptane-2-carboxamide]"
4,3,"COc1ccc([C@@H]2CCC(CC(C)(C)O)C2)cc1C(=O)N[C@H]1[C@@H](C(=O)Nc2ccc(F)c(C(F)(F)F)c2)[C@H]2CC[C@@H]1/C2=C\C1CCCC1 (stereo partly drawn) [Example 362, (1R,2S,3R,4R,Z)-7-(cyclopentyl-methylene)-N-(4-fluoro-3-(trifluoromethyl)phenyl)-3-(5-((1R)-3-(2-hydroxy-2-methylpropyl)cyclopentyl)-2-methoxybenzamido) bicyclo[2.2.1] heptane-2-carboxamide]"
5,3.9,"COc1ccc(C2CC(C(C)(C)O)C2)cc1C(=O)N[C@H]1[C@@H](C(=O)Nc2ccc(F)c(C(F)(F)F)c2)[C@H]2CC[C@@H]1/C2=C\C1CCCC1 (stereo partly drawn) [Example 363, (1R,2S,3R,4R,Z)-7-(cyclopentyl-methylene)-N-(4-fluoro-3-(trifluoromethyl)phenyl)-3-(5-(3-(2-hydroxypropan-2-yl)cyclobutyl)-2-methoxybenzamido) bicyclo[2.2.1] heptane-2-carboxamide]"
6,1.1,"COc1ccc(COc2c(F)cccc2C(OC(=O)Nc2ccccc2)C(F)(F)F)cc1C(=O)N[C@H]1[C@@H](C(=O)Nc2ccc(F)c(C(F)(F)F)c2)[C@H]2CC[C@@H]1/C2=C\C1CC1 (stereo partly drawn) [Example 364, 1-(2-((3-(((1R,2R,3S,4R,Z)-7-(cyclopropyl-methylene)-3-((4-fluoro-3-(trifluoromethyl)phenyl)carbamoyl)bicyclo[2.2.1]heptan-2-yl)carbamoyl)-4-methoxybenzyl)oxy)-3-fluorophenyl)-2,2,2-trifluoroethyl phenylcarbamate]"
7,2.8,"COc1c(F)cc(C(=O)N2CC(S(C)(=O)=O)C2)cc1C(=O)N[C@H]1[C@@H](C(=O)Nc2ccc(F)c(C(F)(F)F)c2)[C@H]2CC[C@@H]1/C2=C\C1CCCC1 [Example 365, (1R,2S,3R,4R,7Z)-7-(cyclopentyl-methylidene)-N-[4-fluoro-3-(trifluoromethyl)phenyl]-3-[3-fluoro-5-(3-methanesulfonyl-azetidine-1-carbonyl)-2-methoxybenzamido] bicyclo[2.2.1]heptane-2-carboxamide]"
